Experimental data reported in the supplement of paper PMC9265050, “Inhibition of RNA Binding in SND1 Increases the Levels of miR-1-3p and Sensitizes Cancer Cells to Navitoclax” (Cancers, 2022).

System: SW480
Assay: drug sensitivity score (DSS, integrated dose-response area); higher = more sensitive (stronger viability reduction); extreme values may be limits of the assay
Method in brief: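 Viability of induced SW480 cells carrying control or SND1-targeting shRNA was read by CellTiter-Glo 72 h after plating at 1000 cells per well onto 384-well plates holding 525 small-molecule inhibitors at five concentrations. Induction used 0.1 µg/mL doxycycline for 7 days. Each drug sensitivity score integrates the area under a fitted non-linear dose–response model.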

[1] = shRNA: SND1 shRNA1 (SND1 silenced)
[2] = shRNA: SND1 shRNA2 (SND1 silenced)
[3] = shRNA: control shRNA (non-targeting)

SMILES: Cc1c(C(=O)Nc2ccc(N3C[C@@H](C)O[C@@H](C)C3)nc2)cccc1-c1ccc(OC(F)(F)F)cc1 [Sonidegib]
- drug sensitivity score [1]: 2.9 DSS
- drug sensitivity score [2]: 5.7 DSS
- drug sensitivity score [3]: 2.8 DSS

SMILES: C=CCN(/C=C1/C(=O)O[C@H](COC)[C@@]2(C)C1=C(O)C(=O)C1=C2[C@H](OC(C)=O)C[C@]2(C)C(=O)CC[C@@H]12)CC=C [Sonolisib]
- drug sensitivity score [1]: 0 DSS
- drug sensitivity score [2]: 0.3 DSS
- drug sensitivity score [3]: 2.1 DSS

SMILES: CNC(=O)c1cc(Oc2ccc(NC(=O)Nc3ccc(Cl)c(C(F)(F)F)c3)cc2)ccn1 [Sorafenib]
- drug sensitivity score [1]: 0 DSS
- drug sensitivity score [2]: 0 DSS
- drug sensitivity score [3]: 0 DSS

SMILES: CN1CCN(c2nc(C3=C(c4c[nH]c5ccccc45)C(=O)NC3=O)c3ccccc3n2)CC1 [Sotrastaurin]
- drug sensitivity score [1]: 4.5 DSS
- drug sensitivity score [2]: 0.5 DSS
- drug sensitivity score [3]: 4.9 DSS

SMILES: C=CC(=O)Nc1cccc(Nc2nc(Nc3ccc(OCCOC)cc3)ncc2F)c1 [Spebrutinib]
- drug sensitivity score [1]: 2.5 DSS
- drug sensitivity score [2]: 0 DSS
- drug sensitivity score [3]: 4.4 DSS

SMILES: O=[N+]([O-])c1ccc2c(c1)S(=O)(=O)C=C2 [Stattic]
- drug sensitivity score [1]: 16 DSS
- drug sensitivity score [2]: 15.8 DSS
- drug sensitivity score [3]: 9.5 DSS

SMILES: CC(C)n1cnc2c(NCCc3ccc(O)cc3)nc(-c3csc4ccccc34)nc21 [StemRegenin 1]
- drug sensitivity score [1]: 1.3 DSS
- drug sensitivity score [2]: 1 DSS
- drug sensitivity score [3]: 0.8 DSS

SMILES: CN(N=O)C(=O)N[C@@H](C=O)[C@@H](O)[C@H](O)[C@H](O)CO [Streptozocin]
- drug sensitivity score [1]: 0.8 DSS
- drug sensitivity score [2]: 5.9 DSS
- drug sensitivity score [3]: 4.1 DSS

SMILES: CCN(CC)CCNC(=O)c1c(C)[nH]c(/C=C2\C(=O)Nc3ccc(F)cc32)c1C [Sunitinib]
- drug sensitivity score [1]: 0.3 DSS
- drug sensitivity score [2]: 0.1 DSS
- drug sensitivity score [3]: 0.7 DSS

SMILES: CC(C)(O)CC(=O)NCCn1ccc2ncnc(Nc3ccc(Oc4cccc(C(F)(F)F)c4)c(Cl)c3)c21 [TAK-285]
- drug sensitivity score [1]: 0 DSS
- drug sensitivity score [2]: 0 DSS
- drug sensitivity score [3]: 0 DSS

SMILES: N#Cc1c(Oc2ccc(F)c(NC(=O)Cc3cccc(C(F)(F)F)c3)c2)ccc2nc(NC(=O)C3CC3)sc12 [TAK-632]
- drug sensitivity score [1]: 5.9 DSS
- drug sensitivity score [2]: 0.5 DSS
- drug sensitivity score [3]: 3.1 DSS

SMILES: CCc1nc(-c2cccc(C)c2)c(-c2ccnc(NC(=O)c3ccccc3)c2)s1 [TAK-715]
- drug sensitivity score [1]: 4.7 DSS
- drug sensitivity score [3]: 5.1 DSS

SMILES: Cn1c(=O)c(F)c(Nc2ccc(I)cc2F)c2c(=O)n(C[C@@H](O)CO)cnc21 [TAK-733]
- drug sensitivity score [1]: 21.7 DSS
- drug sensitivity score [2]: 12.2 DSS
- drug sensitivity score [3]: 12 DSS

SMILES: CCS(=O)(=O)c1cccc(-c2cc(C(=O)NC3CCN(C)CC3)c(C)c3[nH]c4ncc(C)cc4c23)c1 [TAK-901]
- drug sensitivity score [1]: 0.6 DSS
- drug sensitivity score [2]: 0 DSS
- drug sensitivity score [3]: 2.1 DSS

SMILES: COc1cc(C(=O)NC2CCN(C)CC2)c(F)cc1Nc1ncc2c(n1)N(C1CCCC1)CC(F)(F)C(=O)N2C [TAK-960]
- drug sensitivity score [1]: 0.1 DSS
- drug sensitivity score [2]: 5.4 DSS
- drug sensitivity score [3]: 3.6 DSS

SMILES: Cc1cccc(-c2[nH]c(CNc3ccccc3F)nc2-c2ccc3ncnn3c2)n1 [TEW-7197]
- drug sensitivity score [1]: 0 DSS
- drug sensitivity score [2]: 0.6 DSS
- drug sensitivity score [3]: 0.6 DSS

SMILES: Nc1nc(N)c2nc(-c3cccc(O)c3)c(-c3cccc(O)c3)nc2n1 [TG100-115]
- drug sensitivity score [1]: 0 DSS
- drug sensitivity score [2]: 2.6 DSS
- drug sensitivity score [3]: 4.9 DSS

SMILES: Cc1cc(C(C)Nc2ccccc2)c2nc(N3CCOCC3)cc(=O)n2c1 (stereo not given) [TGX-221]
- drug sensitivity score [1]: 1.6 DSS
- drug sensitivity score [2]: 2.5 DSS
- drug sensitivity score [3]: 0.8 DSS

SMILES: Nc1nc(NC2CC2)cc(-c2cccc(Cl)c2Cl)n1 [TH588]
- drug sensitivity score [1]: 6.2 DSS
- drug sensitivity score [3]: 6.3 DSS

SMILES: NC(=O)Nc1sc(-c2ccc(F)cc2)cc1C(N)=O [TPCA-1]
- drug sensitivity score [1]: 3.8 DSS
- drug sensitivity score [3]: 2.3 DSS

SMILES: Clc1ccccc1C(c1ccccc1)(c1ccccc1)n1cccn1 [TRAM-34]
- drug sensitivity score [1]: 0 DSS
- drug sensitivity score [2]: 0 DSS
- drug sensitivity score [3]: 1.3 DSS

SMILES: CC(=O)Nc1ccc(C(=O)Nc2ccccc2N)cc1 [Tacedinaline]
- drug sensitivity score [1]: 0 DSS
- drug sensitivity score [2]: 4.5 DSS
- drug sensitivity score [3]: 3.8 DSS

SMILES: C=CC[C@@H]1/C=C(\C)C[C@H](C)C[C@H](OC)[C@H]2O[C@@](O)(C(=O)C(=O)N3CCCC[C@H]3C(=O)O[C@H](/C(C)=C/[C@@H]3CC[C@@H](O)[C@H](OC)C3)[C@H](C)[C@@H](O)CC1=O)[C@H](C)C[C@@H]2OC [Tacrolimus]
- drug sensitivity score [1]: 0 DSS
- drug sensitivity score [3]: 0 DSS

SMILES: Cn1ncnc1[C@H]1c2n[nH]c(=O)c3cc(F)cc(c23)N[C@@H]1c1ccc(F)cc1 [Talazoparib]
- drug sensitivity score [1]: 5.8 DSS
- drug sensitivity score [2]: 0 DSS
- drug sensitivity score [3]: 2.5 DSS

SMILES: C[C@@H]1CN(Cc2ccc(F)cc2)[C@@H](C)CN1C(=O)c1cc2c(C(=O)C(=O)N(C)C)cn(C)c2cc1Cl [Talmapimod]
- drug sensitivity score [1]: 0 DSS
- drug sensitivity score [3]: 0 DSS
